Key:
Experiment in all cases: in vitro small nucleic acid delivery by lipid-nucleic acid mixture, cell uptake by flow cytometry
Format in all cases: cell-based, human
Conditions in all cases: lipid 1.25 ug/mL, fluorescently labeled PGY-ssRNA-26, final 100 nM, 9 h incubation, flow cytometry fluorescence
[1] = tested on: 293T cells
Experimental: (§1) Culture the human pancreatic acinar epithelial cancer cell line HPAC, human large cell lung cancer cell line H460, and human embryonic kidney cell line HEK293T (purchased from the Cell Resource Center, Institute of Basic Medicine, Chinese Academy of Medical Sciences) used in the experiments in a 37°C, 5%CO2 incubator. Culture the HPAC cells in DMEM/F12 medium, the H460 cells in RPMI-1640 medium, and the 293T cells in DMEM medium containing 10% fetal bovine serum and 1% antibiotics (penicillin 100 U/mL & streptomycin […]). Culture the cells to the logarithmic growth phase with a cell density of 6 × 10^5/1 mL medium/well; divide the cells into 12-well plates (1 mL medium/well), and incubate at 37°C overnight (12 h), and then conduct subsequent experiments.
(§2) Add 5 µL of nucleic acid and 95 µL of DEPC-treated water to a 2 mL glass tube, mix homogeneously, add a certain amount of lipid monomer, mix thoroughly, heat in a 90°C water bath for 15 min, and then cool naturally to obtain a mixture of nucleic acid and lipid.
(§3) 3. Detection of cell uptake of nucleic acids delivered by lipids inside cells by means of flow cytometry (CFlow) • 1) Main experimental instruments and equipment: 10 cm cell culture dishes, 12-well cell culture plates, pipettes, transfer tubes, optical microscope, flow cytometer CytoFLEX instrument (purchased from Beckman, USA) • 2) Main experimental reagents: Model establishment and transfection: artificially synthesized lipid monomers and nucleic acids as shown in the table • 3) Culture the human pancreatic acinar epithelial cancer cell line HPAC cells, human large cell lung cancer cell line H460 cells, and human embryonic kidney cell line HEK293T cells used in the experiment to the logarithmic growth phase, and then divide them into 12-well plates at a cell density of 6×10^5/mL culture medium/well; incubate the 12-well plates at 37°C overnight (12 h), and then conduct subsequent experiments. • 4) The experimental groups are as follows: • a) Blank group: refers to untreated cells, and this group serves as a blank control group. • b) Free uptake group: directly add 5 µL of fluorescently labeled nucleic acid solution (stock concentration 20 µM), and this group serves as the negative control group. • c) Lipid-nucleic acid mixture treatment group: add the mixture of lipids and fluorescently labeled nucleic acids prepared in step 2 to the cells, and mix homogeneously. The final concentration of nucleic acids is 100 nM. • 5) After incubating with cells for 9 h, wash the cells three times with PBS, resuspend the cells with PBS (self-prepared), and use a flow cytometer CytoFLEX instrument (purchased from Beckman, USA) to detect the fluorescence intensity of the cells in the sample wells.

[2] = tested on: H460 cells
Experimental: as §1, §2, §3

[3] = tested on: HPAC cells
Experimental: as §1, §2, §3

| Compound | Lipid delivery group (1.25 ug/mL) [1] | Lipid delivery group (1.25 ug/mL) [2] | Lipid delivery group (1.25 ug/mL) [3] |
| --- | --- | --- | --- |
| CCCCCCCCCCCCCCCCCCC[C@@H](O)[C@@H](N)CO [Sphingosine (d22:0), (2S,3R)-2-aminodocosane-1,3-diol] | 22.99% | 24.32% | 39.08% |
| CCCCCCCCCCCCCCCCCCCC[C@@H](O)[C@@H](N)CO [Sphingosine (d23:0), (2S,3R)-2-aminotricosane-1,3-diol] | 98.16% | 98.65% | 78.91% |
| CCCCCCCCCCCCCCCCCC/C=C/[C@@H](O)[C@@H](N)CO [Sphingosine (d23:1), (2S,3R,E)-2-aminotricos-4-ene-1,3-diol] | 34.51% | 44.11% | 7.93% |
| CCCCCCCCCCCCCCCCCCCCC[C@@H](O)[C@@H](N)CO [Sphingosine (d24:0), (2S,3R)-2-aminotetracosane-1,3-diol] | 96.77% | 98.13% | 96.61% |
| CCCCCCCCCCCCCCCCCCC/C=C/[C@@H](O)[C@@H](N)CO [Sphingosine (d24:1), (2S,3R,E)-2-aminotetracos-4-ene-1,3-diol] | 63.97% | 79.66% | 16.65% |
| CCCCCCCCCCCCCCCCCCCCCC[C@@H](O)[C@@H](N)CO [Sphingosine (d25:0), (2S,3R)-2-aminopentacosane-1,3-diol] | 97.76% | 99.26% | 96.17% |
| CCCCCCCCCCCCCCCCCCCC/C=C/[C@@H](O)[C@@H](N)CO [Sphingosine (d25:1), (2S,3R,E)-2-aminopentacos-4-ene-1,3-diol] | 78.12% | 78.43% | 89.70% |
| CCCCCCCCCCCCCCCCCCCCCCC[C@@H](O)[C@@H](N)CO [Sphingosine (d26:0), (2S,3R)-2-aminohexacosane-1,3-diol] | 95.55% | 95.2% | 97.75% |
| CCCCCCCCCCCCCCCCCCCCC/C=C/[C@@H](O)[C@@H](N)CO [Sphingosine (d26:1), (2S,3R,E)-2-aminohexacos-4-ene-1,3-diol] | 87.97% | 85.87% | 96.03% |
| CCCCCCCCCCCCCCCCCCCCCCCC[C@@H](O)[C@@H](N)CO [Sphingosine (d27:0), (2S,3R)-2-aminoheptacosane-1,3-diol] | 91.06% | 97.57% | 97.35% |
| CCCCCCCCCCCCCCCCCCCCCC/C=C/[C@@H](O)[C@@H](N)CO [Sphingosine (d27:1), (2S,3R,E)-2-aminoheptacos-4-ene-1,3-diol] | 92.77% | 95.74% | 99.42% |
| CCCCCCCCCCCCCCCCCCCCCCCCC[C@@H](O)[C@@H](N)CO [Sphingosine (d28:0), (2S,3R)-2-aminooctacosane-1,3-diol] | 96.93% | 98.52% | 94.40% |
| CCCCCCCCCCCCCCCCCCCCCCC/C=C/[C@@H](O)[C@@H](N)CO [Sphingosine (d28:1), (2S,3R,E)-2-aminooctacos-4-ene-1,3-diol] | 86.5% | 84.15% | 96.66% |
| CCCCCCCCCCCCCCCCCCCCCCCCCC[C@@H](O)[C@@H](N)CO [Sphingosine (d29:0), (2S,3R)-2-aminononacosane-1,3-diol] | 72.18% | 65.81% | 83.57% |
| CCCCCCCCCCCCCCCCCCCCCCCC/C=C/[C@@H](O)[C@@H](N)CO [Sphingosine (d29:1), (2S,3R,E)-2-aminononacos-4-ene-1,3-diol] | 32.74% | 62.37% | 23.36% |
| CCCCCCCCCCCCCCCCCCCCCCCCCCC[C@@H](O)[C@@H](N)CO [Sphingosine (d30:0), (2S,3R)-2-aminotriacontane-1,3-diol] | 83.38% | 78.84% | 93.63% |
| CCCCCCCCCCCCCCCCCCCCCCCCC/C=C/[C@@H](O)[C@@H](N)CO [Sphingosine (d30:1), (2S,3R,E)-2-aminotriacont-4-ene-1,3-diol] | 95.79% | 54.83% | 69.34% |
| CCCCCCCCCCCCCCCCCCCCCCCCCCCC[C@@H](O)[C@@H](N)CO [Sphingosine (d31:0), (2S,3R)-2-aminohentriacontane-1,3-diol] | 97.4% | 68.16% | 70.5% |
| CCCCCCCCCCCCCCCCCCCCCCCCCC/C=C/[C@@H](O)[C@@H](N)CO [Sphingosine (d31:1), (2S,3R,E)-2-aminohentriacont-4-ene-1,3-diol] | 75.77% | 82.66% | 60.61% |
| CCCCCCCCCCCCCCCCCCCCCCCCCCCCC[C@@H](O)[C@@H](N)CO [Sphingosine (d32:0), (2S,3R)-2-aminodotriacontane-1,3-diol] | 34.02% | 46.19% | 70.16% |
| CCCCCCCCCCCCCCCCCCCCCCCCCCC/C=C/[C@@H](O)[C@@H](N)CO [Sphingosine (d32:1), (2S,3R,E)-2-aminodotriacont-4-ene-1,3-diol] | 86.77% | 62.18% | 87.38% |
| CCCCCCCCCCCCCCCCCCCCCCCCCCCCCC[C@@H](O)[C@@H](N)CO [Sphingosine (d33:0), (2S,3R)-2-aminotritriacontane-1,3-diol] | 61.39% | 72.21% | 2.48% |
| CCCCCCCCCCCCCCCCCCCCCCCCCCCC/C=C/[C@@H](O)[C@@H](N)CO [Sphingosine (d33:1), (2S,3R,E)-2-aminotritriacont-4-ene-1,3-diol] | 40.07% | 67.01% | 45.88% |
| CCCCCCCCCCCCCCCCCCCCCCCCCCCCCCC[C@@H](O)[C@@H](N)CO [Sphingosine (d34:0), (2S,3R)-2-aminotetratriacontane-1,3-diol] | 5% | 24.56% | 0.55% |
| CCCCCCCCCCCCCCCCCCCCCCCCCCCCC/C=C/[C@@H](O)[C@@H](N)CO [Sphingosine (d34:1), (2S,3R,E)-2-aminotetratriacont-4-ene-1,3-diol] | 38.31% | 66.64% | 2.95% |
| CCCCCCCCCCCCCCCCCCCCCCCCCCCCCCCC[C@@H](O)[C@@H](N)CO [Sphingosine (d35:0), (2S,3R)-2-aminopentatriacontane-1,3-diol] | 43.03% | 69.95% | 51.46% |
| CCCCCCCCCCCCCCCCCCCCCCCCCCCCCC/C=C/[C@@H](O)[C@@H](N)CO [Sphingosine (d35:1), (2S,3R,E)-2-aminopentatriacont-4-ene-1,3-diol] | 50.79% | 64.66% | 53.75% |
| CCCCCCCCCCCCCCCCCCCCCCCCCCCCCCCCC[C@@H](O)[C@@H](N)CO [Sphingosine (d36:0), (2S,3R)-2-aminohexatriacontane-1,3-diol] | 40.66% | 62.71% | 58.22% |
| CCCCCCCCCCCCCCCCCCCCCCCCCCCCCCC/C=C/[C@@H](O)[C@@H](N)CO [Sphingosine (d36:1), (2S,3R,E)-2-aminohexatriacont-4-ene-1,3-diol] | 25.23% | 48.37% | 48.77% |

Reference: patent EP4591884A1, “LIPID COMPOUND FOR NUCLEIC ACID DELIVERY, AND RELATED USE AND MEDICAMENT COMPRISING SAME” (Beijing Baishihekang Pharmaceutical Technology (Bsjpharma) …, priority 2022, dated 2024)
